Experimental data taken from patent US11976059B2 (KOREA RESEARCH INSTITUTE OF CHEMICAL TECHNOLOGY, priority 2018, dated 2024).

The compounds below were run against EGFR L858R/T790M/C797S mutant enzyme (Homo sapiens (Human), UniProt P00533, C797S/L858R/T790M) (assay: EGFR mutant enzyme inhibition, HTRF system (Cisbio)). Conditions: ATP 1 mM, 37° C. for 2 hours.
Format: biochemical
Protocol: In order to evaluate the inhibitory activity of the compound represented by formula 1 according to the present invention against EGFR mutation, the following experiment was performed.
The activity of the compound of the present invention against EGFR mutant enzyme was measured using the HTRF system of Cisbio Co. As an EGFR L858R/T790M/C797S mutant enzyme, a protein provided by SignalChem was purchased and used as an enzyme source.
The composition of the assay buffer used for the activity measurement was as follows: 50 mM Tris-HCl (pH 7.5), 100 mM NaCl, 7.5 mM MgCl2, 3 mM KCl, 0.01% Tween 20, 0.1% BSA, and 1 mM DTT. Herein, an enzyme reaction was performed using a peptide substrate labeled with ATP at the concentration of 1 mM and biotin at the concentration of 0.5 μM. The analysis of the EGFR activity inhibitory effect of the compound was performed according to the following analytical reaction recipe.
Component 1: 4 μl of EGFR mutant enzyme
Component 2: 2 μl of compound solution
Component 3: 4 μl of ATP and biotin-labeled peptide mixture
The enzyme reaction was initiated by mixing the component 1 and the component 2 first and then adding the component 3 thereto. After reacting the mixture at 37° C. for 2 hours, 10 μl of a measurement solution consisting of streptavidin-XL665 and europium-labeled anti-phosphotyrosine antibody provided by Cisbio was added to the enzyme reaction solution, followed by reaction at room temperature for 1 hour. Finally, the ratio of the fluorescence values at 615 nm and 665 nm was calculated using Envision equipment of Perkin-Elmer to quantitatively measure the enzyme activity and confirm the inhibitory ability of the compound. The values measured at 7 concentrations of the compound were analyzed using Prism program (version 5.01, Graphpad Software, Inc.), and the IC50 value, an index of the inhibitory ability of the compound, was calculated.

Sequence of EGFR L858R/T790M/C797S mutant enzyme (P00533 25-1210 T790M/C797S/L858R): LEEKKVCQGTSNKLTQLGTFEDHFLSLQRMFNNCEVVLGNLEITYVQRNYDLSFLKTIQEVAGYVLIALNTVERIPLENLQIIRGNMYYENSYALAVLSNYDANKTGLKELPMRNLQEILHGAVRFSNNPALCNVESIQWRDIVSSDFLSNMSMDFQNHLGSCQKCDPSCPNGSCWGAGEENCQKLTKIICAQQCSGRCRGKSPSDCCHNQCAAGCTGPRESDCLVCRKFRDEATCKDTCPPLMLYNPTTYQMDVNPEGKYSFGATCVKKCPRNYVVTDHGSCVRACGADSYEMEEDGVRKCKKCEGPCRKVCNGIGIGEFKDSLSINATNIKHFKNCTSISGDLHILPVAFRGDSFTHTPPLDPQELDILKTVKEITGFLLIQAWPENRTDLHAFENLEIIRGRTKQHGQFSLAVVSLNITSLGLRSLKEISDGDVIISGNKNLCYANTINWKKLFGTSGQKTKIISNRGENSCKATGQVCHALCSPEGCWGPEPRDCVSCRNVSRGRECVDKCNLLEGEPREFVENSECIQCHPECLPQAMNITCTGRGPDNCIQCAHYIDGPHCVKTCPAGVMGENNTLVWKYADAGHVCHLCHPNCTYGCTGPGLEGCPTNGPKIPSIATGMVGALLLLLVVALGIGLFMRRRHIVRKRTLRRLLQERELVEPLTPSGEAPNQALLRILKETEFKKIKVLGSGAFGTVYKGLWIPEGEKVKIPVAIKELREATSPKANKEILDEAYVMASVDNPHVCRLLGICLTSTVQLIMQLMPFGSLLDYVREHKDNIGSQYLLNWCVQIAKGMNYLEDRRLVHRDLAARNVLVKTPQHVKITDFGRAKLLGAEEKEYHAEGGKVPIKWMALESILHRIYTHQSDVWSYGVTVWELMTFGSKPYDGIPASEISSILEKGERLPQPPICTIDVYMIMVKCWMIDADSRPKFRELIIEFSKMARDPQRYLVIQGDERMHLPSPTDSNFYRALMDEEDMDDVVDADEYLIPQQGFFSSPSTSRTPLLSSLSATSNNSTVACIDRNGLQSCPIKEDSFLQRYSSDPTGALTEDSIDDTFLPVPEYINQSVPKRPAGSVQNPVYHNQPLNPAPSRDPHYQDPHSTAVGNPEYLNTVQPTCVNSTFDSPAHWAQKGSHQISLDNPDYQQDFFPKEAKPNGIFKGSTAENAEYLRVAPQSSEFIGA

SMILES	IC50 [µM]
Nc1ccc(-c2ccc3c(c2)C(=O)N(C(c2nc4ccccc4[nH]2)c2cc(F)ccc2O)C3)cc1 (centres unmarked) [Example 13, 2-((1H-benzo[d]imidazole-2-yl)(5-fluoro-2-hydroxyphenyl)methyl)-6-(4-aminophenyl)isoindolin-1-one]	0.098
O=C1c2cc(-c3ccc(C4=CCNCC4)cc3)ccc2CN1[C@@H](c1cc2cc(F)ccc2[nH]1)c1cc(F)ccc1O [Example 52, (R)-2-((5-fluoro-1H-indole-2-yl)(5-fluoro-2-hydroxyphenyl)methyl)-6-(4-(1,2,3,6-tetrahydropyridine-4-yl)phenyl)isoindolin-1-one]	> 10
O=C1c2cc(-c3ccc(N4CCNCC4)cc3)ccc2CN1[C@H](c1cc2ccccc2[nH]1)c1cc(F)ccc1O [Example 53, (S)-2-((5-fluoro-2-hydroxyphenyl)(1H-indole-2-yl)methyl)-6-(4-(piperazine-1-yl)phenyl)isoindolin-1-one]	0.12
CC(=O)N1CCN(c2ccc(-c3ccc4c(c3)C(=O)N([C@@H](c3cc5ccccc5[nH]3)c3cc(F)ccc3O)C4)cc2)CC1 [Example 54, (R)-6-(4-(4-acetylpiperazine-1-yl)phenyl)-2-((5-fluoro-2-hydroxyphenyl)(1H-indole-2-yl)methyl)-isoindolin-1-one]	0.24
CN1CCN(C2CCN(c3ccc(-c4ccc5c(c4)C(=O)N([C@@H](c4cc6ccccc6[nH]4)c4cc(Cl)ccc4O)C5)cc3)CC2)CC1 [Example 58, (R)-2-((5-chloro-2-hydroxyphenyl)(1H-indole-2-yl)methyl)-6-(4-(4-(4-methylpiperazine-1-yl)piperidine-1-yl)phenyl)isoindolin-1-one]	3.7
O=C1c2cc(-c3ccc(N4CCC(N5CCNCC5)CC4)cc3)ccc2CN1[C@@H](c1cc2ccccc2[nH]1)c1cc(Cl)ccc1O [Example 60, (R)-2-((5-chloro-2-hydroxyphenyl)(1H-indole-2-yl)methyl)-6-(4-(4-(piperazine-1-yl)piperidine-1-yl)phenyl)isoindolin-1-one]	0.19
CN(C)C1CCN(c2ccc(-c3ccc4c(c3)C(=O)N([C@@H](c3cc5ccccc5[nH]3)c3cc(Cl)ccc3O)C4)cc2)CC1 [Example 62, (R)-2-((5-chloro-2-hydroxyphenyl)(1H-indole-2-yl)methyl)-6-(4-(4-(dimethylamino)piperidine-1-yl)phenyl)-isoindolin-1-one]	2.2
O=C1c2cc(-c3ccc(N4CCN(C5CCNCC5)CC4)cc3)ccc2CN1[C@@H](c1cc2ccccc2[nH]1)c1cc(F)ccc1O [Example 63, (R)-2-((5-fluoro-2-hydroxyphenyl)(1H-indole-2-yl)methyl)-6-(4-(4-(piperidine-4-yl)piperazine-1-yl)phenyl)isoindolin-1-one]	0.3
O=C1c2cc(-c3ccc(N4CCN(C5CCNCC5)CC4)cc3)ccc2CN1[C@@H](c1cc2ccccc2[nH]1)c1cc(Cl)ccc1O [Example 64, (R)-2-((5-chloro-2-hydroxyphenyl)(1H-indole-2-yl)methyl)-6-(4-(4-(piperidine-4-yl)piperazine-1-yl)phenyl)isoindolin-1-one]	0.26
CN1CCC(N2CCN(c3ccc(-c4ccc5c(c4)C(=O)N([C@@H](c4cc6ccccc6[nH]4)c4cc(Cl)ccc4O)C5)cc3)CC2)CC1 [Example 66, (R)-2-((5-chloro-2-hydroxyphenyl)(1H-indole-2-yl)methyl)-6-(4-(4-(1-methylpiperidine-4-yl)piperazine-1-yl)phenyl)isoindolin-1-one]	0.41
O=C1c2cc(-c3ccc(N4CCCC4)cc3)ccc2CN1[C@@H](c1cc2ccccc2[nH]1)c1cc(F)ccc1O [Example 67, (R)-2-((5-fluoro-2-hydroxyphenyl)(1H-indole-2-yl)methyl)-6-(4-(pyrrolidine-1-yl)phenyl)isoindolin-1-one]	0.79
O=C1c2cc(-c3ccc(N4CCCC4)cc3)ccc2CN1[C@@H](c1cc2ccccc2[nH]1)c1cc(Cl)ccc1O [Example 68, (R)-2-((5-chloro-2-hydroxyphenyl)(1H-indole-2-yl)methyl)-6-(4-(pyrrolidine-1-yl)phenyl)isoindolin-1-one]	0.25
N[C@@H]1CCN(c2ccc(-c3ccc4c(c3)C(=O)N([C@@H](c3cc5ccccc5[nH]3)c3cc(Cl)ccc3O)C4)cc2)C1 [Example 70, 6-(4-((R)-3-aminopyrrolidine-1-yl)phenyl)-2-((R)-(5-chloro-2-hydroxyphenyl)(1H-indole-2-yl)methyl)isoindolin-1-one]	0.73

These reach a lower IC50. Values come first.

IC50 [µM]	SMILES
0.091	O=C1c2cc(-c3ccc(N4CCNCC4)cc3)ccc2CN1C(c1nc2ccccc2[nH]1)c1ccccc1O (centres unmarked) [Example 9, 2-((1H-benzo[d]imidazole-2-yl)(2-hydroxyphenyl)methyl)-6-(4-(piperazine-1-yl)phenyl)isoindolin-1-one]
0.066	CN(C)C1CCN(c2ccc(-c3ccc4c(c3)C(=O)N([C@@H](c3cc5ccccc5[nH]3)c3cc(F)ccc3O)C4)cc2)CC1 [Example 61, (R)-6-(4-(4-(dimethylamino)piperidine-1-yl)phenyl)-2-((5-fluoro-2-hydroxyphenyl)(1H-indole-2-yl)methyl)-isoindolin-1-one]
0.056	N[C@@H]1CCN(c2ccc(-c3ccc4c(c3)C(=O)N([C@@H](c3cc5ccccc5[nH]3)c3cc(F)ccc3O)C4)cc2)C1 [Example 69, 6-(4-((R)-3-aminopyrrolidine-1-yl)phenyl)-2-((R)-(5-fluoro-2-hydroxyphenyl)(1H-indole-2-yl)methyl)isoindolin-1-one]
0.05	CN1CCC(N2CCN(c3ccc(-c4ccc5c(c4)C(=O)N([C@@H](c4cc6ccccc6[nH]4)c4cc(F)ccc4O)C5)cc3)CC2)CC1 [Example 65, (R)-2-((5-fluoro-2-hydroxyphenyl)(1H-indole-2-yl)methyl)-6-(4-(4-(1-methylpiperidine-4-yl)piperazine-1-yl)phenyl)isoindolin-1-one]
0.045	N[C@H]1CCN(c2ccc(-c3ccc4c(c3)C(=O)N([C@@H](c3cc5ccccc5[nH]3)c3cc(F)ccc3O)C4)cc2)C1 [Example 71, 6-(4-((S)-3-aminopyrrolidine-1-yl)phenyl)-2-((R)-(5-fluoro-2-hydroxyphenyl)(1H-indole-2-yl)methyl)isoindolin-1-one]
0.04	CN1CCN(C2CCN(c3ccc(-c4ccc5c(c4)C(=O)N([C@@H](c4cc6ccccc6[nH]4)c4cc(F)ccc4O)C5)cc3)CC2)CC1 [Example 57, (R)-2-((5-fluoro-2-hydroxyphenyl)(1H-indole-2-yl)methyl)-6-(4-(4-(4-methylpiperazine-1-yl)piperidine-1-yl)phenyl)isoindolin-1-one]
0.032	O=C1c2cc(-c3ccc(N4CCC(N5CCNCC5)CC4)cc3)ccc2CN1[C@@H](c1cc2ccccc2[nH]1)c1cc(F)ccc1O [Example 59, (R)-2-((5-fluoro-2-hydroxyphenyl)(1H-indole-2-yl)methyl)-6-(4-(4-(piperazine-1-yl)piperidine-1-yl)phenyl)isoindolin-1-one]

What follows are compounds tested on Ba/F3 EGFR L858R/T790M (assay: Ba/F3 cell viability, CellTiter-Glo). Conditions: administered alone; FIGS. 1 to 4.
Format: cell-based
Protocol: In order to confirm that the compound represented by formula 1 according to the present invention acted as an allosteric inhibitor against EGFR wild-type and mutants, the inhibitory effect on EGFR wild-type and mutants in Ba/F3 cell lines was evaluated. In addition, in order to evaluate the cellular activity when the compound according to the present invention was co-administered with an existing drug, the cellular activity according to the combined administration was evaluated using Cetuximab used alone or in combination with chemotherapy in metastatic colorectal cancer and metastatic squamous head and neck cancer.
Particularly, the activity of the compound of the present invention against the wild-type and mutant Ba/F3 EGFR cell lines was measured as follows using the CellTiter-Glo system of Promega. CellTiter-Glo assay is a method to confirm the cell viability by measuring ATP present in cells in cell culture state. Ba/F3 EGFR wild-type and Ba/F3 EGFR L858R, Ba/F3 EGFR L858R/T790M and Ba/F3 L858R/T790M/C797S mutant cell lines were purchased from Crown Bioscience and used. Ba/F3 EGFR wild-type and Ba/F3 EGFR L858R, Ba/F3 EGFR L858R/T790M and Ba/F3 L858R/T790M/C797S mutant cell lines were cultured in RPMI containing 10% FBS, 1% penicillin-streptomycin and 1 ug/ml of puromycine in a 37° C., 5% CO2 incubator.
Analysis of the cell survival inhibitory effect of the compound according to each EGFR mutant was performed according to the following analytical reaction recipe.
BaF3 cells were aliquoted into 2500 cells/50 ul per well of a 96 well cell culture plate and cultured for 24 hours, to which 50 ul of the compound represented by formula 1 was treated at the concentrations of 0, 0.03, 0.1, 0.3, and 1 μM. The plate treated with the compound was reacted in a 37° C. incubator for 72 hours, and then left at room temperature for 30 minutes according to the CellTiter-Glo assay instruction to maintain the plate temperature at room temperature. Thereafter, 100 μl of CellTiter-Glo reagent was treated to each well of the plate, followed by shaking incubation at room temperature for 10 minutes. Finally, the […] was quantitatively measured using a luminometer, and the ability of the compound to inhibit cell viability was confirmed. The values measured at concentrations of the compound were analyzed using Prism program (version 5.01, Graphpad Software, Inc.), and the IC50 value, an index of the inhibitory ability of the compound, was calculated.

SMILES	cell viability
O=C1c2cc(-c3ccc(N4CCNCC4)cc3)ccc2CN1C(c1nc2ccccc2[nH]1)c1ccccc1O (centres unmarked) [Example 9, 2-((1H-benzo[d]imidazole-2-yl)(2-hydroxyphenyl)methyl)-6-(4-(piperazine-1-yl)phenyl)isoindolin-1-one]	increased cell viability
Nc1ccc(-c2ccc3c(c2)C(=O)N(C(c2nc4ccccc4[nH]2)c2cc(F)ccc2O)C3)cc1 (centres unmarked) [Example 13, 2-((1H-benzo[d]imidazole-2-yl)(5-fluoro-2-hydroxyphenyl)methyl)-6-(4-aminophenyl)isoindolin-1-one]	increased cell viability

Same assay, conditions: co-administered with Cetuximab; 30 nM or 100 nM; FIGS. 6 and 7

SMILES	cell viability compared to EAI045
O=C1c2cc(-c3ccc(N4CCNCC4)cc3)ccc2CN1C(c1nc2ccccc2[nH]1)c1ccccc1O (centres unmarked) [Example 9, 2-((1H-benzo[d]imidazole-2-yl)(2-hydroxyphenyl)methyl)-6-(4-(piperazine-1-yl)phenyl)isoindolin-1-one]	significantly reduced the cell viability
